Source: ChEMBL document CHEMBL5316319, “Targeting Death-Associated Protein Kinases for Treatment of Human Diseases: Recent Advances and Future Directions” (J Med Chem, 2023)
Each block holds one compound with its values, some of them ahead of it.

Legend:
[1] = biological target: T1, Death-associated protein kinase 1 (Homo sapiens, UniProt P53355); experiment: Inhibition of DAPK1 (unknown origin)
[2] = biological target: T2, Serine/threonine-protein kinase 17A (Homo sapiens, UniProt Q9UEE5); experiment: Inhibition of DRAK1 (unknown origin)
T2 sequence (Q9UEE5 whole entry): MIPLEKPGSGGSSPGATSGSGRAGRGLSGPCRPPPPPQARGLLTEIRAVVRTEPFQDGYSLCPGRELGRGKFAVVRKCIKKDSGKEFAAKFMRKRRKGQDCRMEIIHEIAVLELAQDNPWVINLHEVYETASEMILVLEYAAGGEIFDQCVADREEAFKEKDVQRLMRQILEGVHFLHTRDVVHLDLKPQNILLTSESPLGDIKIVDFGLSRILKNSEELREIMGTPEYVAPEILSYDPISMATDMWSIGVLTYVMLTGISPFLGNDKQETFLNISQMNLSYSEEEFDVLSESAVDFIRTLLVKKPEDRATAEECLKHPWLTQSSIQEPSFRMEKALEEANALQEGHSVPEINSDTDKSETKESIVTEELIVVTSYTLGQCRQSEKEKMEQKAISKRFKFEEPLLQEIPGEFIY

[3] = biological target: T3, Serine/threonine-protein kinase 17B (Homo sapiens, UniProt O94768); experiment: Inhibition of DRAK2 (unknown origin)
T3 sequence (O94768 whole entry): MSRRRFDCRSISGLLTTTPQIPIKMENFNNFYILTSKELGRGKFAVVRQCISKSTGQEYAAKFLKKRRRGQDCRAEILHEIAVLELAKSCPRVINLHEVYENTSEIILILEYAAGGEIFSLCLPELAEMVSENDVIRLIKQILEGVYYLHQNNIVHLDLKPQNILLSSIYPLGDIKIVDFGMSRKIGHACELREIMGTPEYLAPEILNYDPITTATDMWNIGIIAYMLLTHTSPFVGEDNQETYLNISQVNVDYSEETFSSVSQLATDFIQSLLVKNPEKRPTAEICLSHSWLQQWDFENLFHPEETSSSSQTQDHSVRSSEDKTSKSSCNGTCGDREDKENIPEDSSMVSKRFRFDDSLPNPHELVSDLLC

[4] = biological target: T4, Death-associated protein kinase 3 (Homo sapiens, UniProt O43293); experiment: Inhibition of DAPK3 (unknown origin)
[5] = biological target: T1, Death-associated protein kinase 1; experiment: Inhibition of DAPK1 (unknown origin) in presence of 33P-ATP radiolabeled kinase assay
[6] = biological target: T3, Serine/threonine-protein kinase 17B; experiment: Binding affinity to DRAK2 (unknown origin) assessed as dissociation constant
[7] = biological target: T1, Death-associated protein kinase 1; experiment: Inhibition of DAPK1 (1 to 285 residues) (unknown origin) expressed in Escherichia coli using KKLNRTLSFAEPG as substrate in presence of ATP by fluoro-spark kinase assay
[8] = biological target: T3, Serine/threonine-protein kinase 17B; experiment: Inhibition of recombinant GST-tagged DRAK2 (unknown origin) by promega ADP-Glo assay
[9] = biological target: Serine/threonine-protein kinase pim-1 (Homo sapiens, UniProt P11309); experiment: Inhibition of human full length-His6 tagged PIM1 (1 to 312 residues) expressed in Escherichia coli BL21 (DE3) assessed as inhibition constant using RSRHSSYPAGT as peptide substrate incubated for 10 mins in presence of [gamma-32P]ATP by radiometric scintillation assay
[10] = biological target: T5, Serine/threonine-protein kinase pim-3 (Homo sapiens, UniProt Q86V86); experiment: Inhibition of human full length-His6 tagged PIM3 (1 to 326 residues) expressed in Escherichia coli BL21 (DE3) assessed as inhibition constant using RSRHSSYPAGT as peptide substrate incubated for 10 mins in presence of [gamma-32P]ATP by radiometric scintillation assay
[11] = biological target: T4, Death-associated protein kinase 3; experiment: Inhibition of human recombinant GST-fused DAPK3 (1 to 320 residues) expressed in Escherichia coli BL21 (DE3) assessed as inhibition constant using MYPT1 as peptide substrate incubated for 10 mins in presence of [gamma-32P]ATP by radiometric scintillation assay
[12] = biological target: Serine/threonine-protein kinase pim-2 (Homo sapiens, UniProt Q9P1W9); experiment: Inhibition of human full length-His6 tagged PIM2 (1 to 311 residues) expressed in Escherichia coli BL21 (DE3) assessed as inhibition constant using RSRHSSYPAGT as peptide substrate incubated for 10 mins in presence of [gamma-32P]ATP by radiometric scintillation assay
[13] = biological target: T5, Serine/threonine-protein kinase pim-3; experiment: Inhibition of PIM3 (unknown origin) at 10 uM by (33P-ATP) filter-binding assay relative to control
[14] = biological target: T4, Death-associated protein kinase 3; experiment: Binding affinity to DAPK3 (unknown origin) assessed as dissociation constant
[15] = biological target: Death-associated protein kinase 2 (Homo sapiens, UniProt Q9UIK4); experiment: Binding affinity to DAPK2 (unknown origin) assessed as dissociation constant
[16] = biological target: T1, Death-associated protein kinase 1; experiment: Inhibition of DAPK1 (unknown origin) at 10 uM by (33P-ATP) filter-binding assay relative to control

SMILES: CCc1ccccc1-c1nn(CCCCCCCCCCC(=O)Nc2cnnc(-c3ccccc3)c2)c(=N)cc1C
IC50 [1]: 13000 nM

SMILES: c1ccc(COc2ncnc3c2ncn3Cc2ccccc2)cc1
IC50 [5]: 5900 nM

SMILES: Cc1nc2c(OCc3ccccc3)ncnc2n1C(C)C
IC50 [5]: 23000 nM

SMILES: Nc1c(O)c(S(=O)(=O)O)c(O)c2c1C(=O)c1ccccc1C2=O
IC50 [7]: 9600 nM

SMILES: COc1cc(-c2ccc3ncc(-c4ccc(C(=O)NCCN(C)C)cc4)n3n2)ccc1O
IC50 [1]: 247 nM

SMILES: COC(=O)C1=C2Nc3ccccc3C23CC2N(C)[C@H]3C[C@H]1[C@@]2(C)C(C)=O (stereo not given in full)
IC50 [8]: 11600 nM

SMILES: O=C1c2ccccc2C(=O)c2c1ccc(O)c2O [ATHRAQUINONES A]
IC50 [7]: 3600 nM

SMILES: CC(C)(C)n1c(-c2ccccc2)nc2c(OCc3ccccc3)ncnc21
IC50 [5]: 2500 nM

SMILES: O=C1c2ccccc2C(=O)c2c(O)c(O)cc(O)c21 [PURPURIN]
IC50 [7]: 890 nM

Second part, led by results:

IC50 [2]: 100 nM
IC50 [3]: 10 nM
SMILES: COc1cnc(Nc2ccc(CS(C)(=O)=O)cc2)nc1Nc1cc(C2CC2)[nH]n1
IC50 [1]: 370 nM
IC50 [4]: 310 nM

Kd [6]: 250 nM
SMILES: Nc1c(-c2n[nH]c(=S)o2)sc2ccc(Cl)cc12

Kd [6]: 8 nM
SMILES: Nc1c(-c2n[nH]c(=S)o2)sc2ncc(-c3ccsc3)cc12

Ki [9]: 6480 nM
Ki [10]: 1070 nM
Ki [12]: > 100000 nM
SMILES: CCC(Sc1nc2c(cnn2-c2cccc(F)c2)c(=O)[nH]1)C(N)=O (stereo not given)
Ki [11]: 119 nM

inhibition [13]: 76%
Ki [9]: 2940 nM
Ki [10]: > 100000 nM
Ki [12]: 208 nM
SMILES: CC(Sc1nc2c(cnn2-c2cccc(Cl)c2)c(=O)[nH]1)C(N)=O (stereo not given)
Kd [14]: 280 nM
Kd [15]: 79 nM
inhibition [16]: 89%
Ki [11]: 260 nM

Ki [9]: 6310 nM
Ki [10]: 2500 nM
Ki [12]: > 100000 nM
SMILES: CC(C)(Sc1nc2c(cnn2-c2ccccc2)c(=O)[nH]1)C(N)=O
Ki [11]: 126 nM

Ki [9]: 1480 nM
Ki [10]: 72 nM
Ki [12]: 17300 nM
SMILES: N#CCSc1nc2c(cnn2-c2cccc(Cl)c2)c(=O)[nH]1
Ki [11]: 315 nM
